Where two headings read alike, the source gives them in different places.
Key:
[1] = test system: Human diffuse large B-cell lymphoma cell line (WSU-DLCL2); experiment: Inhibition of WSU-DLCL2 cell proliferation (CellTiter luminescent viability); type: cell-based; settings: for inhibition at 0.01 µM / inhibition at 0.5 µM: Homo sapiens; for inhibition at 0.01 µM: WSUDLCL2, 10 nM, read-out: Inhibition Rate at 10 nM (%); for inhibition at 0.5 µM: WSUDLCL2, 500 nM, read-out: Inhibition Rate at 500 nM (%)
Method: (§1) The tumor cells used herein were cultured in a cell culture medium listed in table 3 at 37 °C in an incubator with 5% CO2. Prior to experimentation, all cell lines used were correctly identified by STR profiling, and tested negative for mycoplasma contamination using a mycoplasma detection kit through routine screenings.
(§2) The IC50 values of the compounds of the present disclosure (including the compounds in Table 1, Table 2, and Examples 1-468) were determined using the CellTiter-Meiluncell Luminescent Cell Viability Assay Kit from Dalian Meilun Biotech Co., Ltd. The detailed procedure is as follows: Tumor cells were seeded in 96-well cell culture plates at the densities specified in Table 4. On the following day, the test compounds of the present disclosure were subjected to serial dilution. The dilution can be performed according to one of the following two methods: • (1) The first dilution method: The test compounds of the present disclosure (including the compounds in Table 1, Table 2, and Examples 1-468) were subjected to 5-fold serial dilutions starting from a highest concentration of 2000 μM, resulting in a total of 9 concentrations from high to low (2000, 400, 80, 16, 3.2, 0.64, 0.128, 0.0256, 0.00512 μM). Subsequently, 0.5 μL of the test compound dilution was transferred into the 96-well plate containing the cells, with each well containing 100 μL of cell culture medium. […] Into the 96-well plate, the diluted test compounds and corresponding detection reagents were added, resulting in final test compound concentrations of 500 nM and 10 nM, respectively. The experimental procedure is described below using the diluted 2 μM test compound as an example.
(§3) 0.5 μL of the aforementioned diluted compound of the present disclosure (including the compounds in Table 1, Table 2, and Examples 1-468) was added to the seeded cells in 100 μL of medium, yielding a final test compound concentration of 10 nM. After the cells were treated with the compounds of the present disclosure for a specified period, the cell viability assay reagent was added to the culture medium according to the kit's instructions to determine cell viability. […] All controls were treated using the same procedure as the compounds of the present disclosure. The growth inhibition curves for the compounds of the present disclosure were plotted using Prism GraphPad software, and the IC50 values were calculated therefrom.

[2] = test system: Human myeloid monocytic leukemia cell line (MV-4-11); experiment: Inhibition of MV-4-11 cell proliferation (CellTiter luminescent viability); type: cell-based; settings: for inhibition at 0.01 µM / inhibition at 0.5 µM: Homo sapiens, MV4-11; for inhibition at 0.01 µM: read-out: Inhibition Rate at 10 nM (%); for inhibition at 0.5 µM: read-out: Inhibition Rate at 500 nM (%)
Summary of the method: (§4)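 Cells are seeded in 96-well plates, cultured at 37 °C, 5% CO2, and treated next day with 5-fold serial compound dilutions (stock series from 2000 μM; 0.5 μL into 100 μL medium). Viability is read by CellTiter-Meiluncell luminescence after the set exposure, and IC50 is taken from growth-inhibition curves.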

[3] = test system: Human Acute T Lymphoblastic Leukemia Cells (Molt-4); experiment: Inhibition of Molt-4 cell proliferation (CellTiter luminescent viability); type: cell-based; settings: for Inhibition Rate at 10 nM (%) / Inhibition Rate at 500 nM (%): Molt-4; for inhibition at 0.01 µM / inhibition at 0.5 µM: Homo sapiens, MOLT-4, Molt-4; for Inhibition Rate at 10 nM (%) / inhibition at 0.01 µM: 10 nM; for inhibition at 0.01 µM: read-out: Inhibition Rate at 10 nM (%); for Inhibition Rate at 500 nM (%) / inhibition at 0.5 µM: 500 nM; for inhibition at 0.5 µM: read-out: Inhibition Rate at 500 nM (%)
[4] = test system: Human non-small cell lung cancer cell line NCI-H2228; experiment: Inhibition of H2228 cell proliferation (CellTiter luminescent viability); settings: Table IB2, ALK inhibitor-based, 96 hours; for inhibition at 0.01 µM: H2228, 10 nM, read-out: Inhibition Rate at 10 nM (%); for inhibition at 0.5 µM: H2228, 500 nM, read-out: Inhibition Rate at 500 nM (%)
Method: as §1, §2, §3

[5] = test system: Human large cell immunoblastic lymphoma cell line SR; experiment: Inhibition of SR cell proliferation (CellTiter luminescent viability); type: cell-based; settings: 96 hours; for inhibition at 0.01 µM / inhibition at 0.5 µM: Homo sapiens; for inhibition at 0.01 µM: read-out: Inhibition Rate at 10 nM (%); for inhibition at 0.5 µM: read-out: Inhibition Rate at 500 nM (%)
Summary of the method: as §4

[6] = biological target: T1, human Cereblon WT GST-tagged protein (CRBN) (Homo sapiens, UniProt Q96SW2); experiment: CRBN binding by HTRF (Cereblon binding kit)
T1 construct: purchased CISBIO 64BDCRBNPEH
Summary of the method: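 GST-tagged human Cereblon WT was incubated 3 h at room temperature with compound, thalidomide-Re tracer and Eu anti-GST antibody. Final compound concentrations were 10 to 0.00064 µM (7 points) or 2 and 0.5 µM. Inhibition rate was calculated from HTRF 665/620 nm ratios versus solvent and blank controls.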

[7] = Table IB2, ALK inhibitor-based, 10 nM
[8] = Table IB2, ALK inhibitor-based, 500 nM
[9] = Table IB2, ALK inhibitor-based, MV-4-11, 10 nM, 96 hours
[10] = Table IB2, ALK inhibitor-based, MV-4-11, 500 nM, 96 hours

T1 sequence (Q96SW2 whole entry): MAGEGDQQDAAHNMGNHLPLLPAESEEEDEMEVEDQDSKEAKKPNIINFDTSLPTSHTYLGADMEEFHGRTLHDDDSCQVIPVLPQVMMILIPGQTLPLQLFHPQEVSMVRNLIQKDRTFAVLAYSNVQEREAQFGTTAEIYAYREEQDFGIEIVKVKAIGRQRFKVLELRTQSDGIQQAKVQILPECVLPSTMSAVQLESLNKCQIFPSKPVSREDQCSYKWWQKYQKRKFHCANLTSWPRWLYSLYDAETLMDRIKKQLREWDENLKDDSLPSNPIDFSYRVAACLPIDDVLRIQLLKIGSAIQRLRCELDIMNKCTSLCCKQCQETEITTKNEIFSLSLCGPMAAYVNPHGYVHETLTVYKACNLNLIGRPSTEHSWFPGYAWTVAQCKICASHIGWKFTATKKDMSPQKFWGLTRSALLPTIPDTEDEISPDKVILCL

For `CC(C)CCN1c2nc(Nc3cc(F)c(O)c(F)c3)ncc2N(C)C(=O)C1C` (stereo not drawn) [BI-D1870, reference compound], the “Inhibition Rate at 10 nM (%)” value ([1]; 10 nM) was “INd1 (0% < INd1 < 5%)”, the “Inhibition Rate at 500 nM (%)” value ([1]; 500 nM) was “INd5 (20% ≤ INd5 < 30%)” and the “Inhibition Rate at 10 nM (%)” value ([2]; MV-4-11, 10 nM) was “INa3 (−5% ≤ INa3 ≤ 0%)”. For the same compound, the “Inhibition Rate at 500 nM (%)” value ([2]; MV-4-11, 500 nM) was “INa7 (20% ≤ INa7 < 30%)”, the “Inhibition Rate at 10 nM (%)” value ([3]; Table IN2) was “INb2 (−15% < INb2 < −5%)” and the “Inhibition Rate at 10 nM (%)” value ([3]; Table IN3) was “INc1 (0% < INcl < 5%)”. The “Inhibition Rate at 500 nM (%)” value ([3]; Table IN2) was “INb5 (5% ≤ INb5 < 10%)” and the “Inhibition Rate at 500 nM (%)” value ([3]; Table IN3) was “INc3 (10% ≤ INc3 < 15%)”.
In the case of `COc1cc(N2CCC(N3CCN(Cc4ccc5c(c4)CN(N4CCC(=O)NC4=O)C5=O)CC3)CC2)ccc1Nc1ncc(Cl)c(Nc2ccccc2P(C)(C)=O)n1` [GT-08146, 1-(5-((4-(1-(4-((5-chloro-4-((2-(dimethylphosphoryl)phenyl)amino)pyrimidin-2-yl)amino)-3-methoxyphenyl)piperidin-4-yl)piperazin-1-yl)methyl)-1-oxoisoindolin-2-yl)dihydropyrimidine-2,4 (1H,3H)-dione], the inhibition at 0.01 µM [4] is reported as 20 to 30%, the inhibition at 0.5 µM [4] is reported as 60 to 80% and the inhibition at 0.01 µM [5, 7] is reported as 45 to 55%. For the same compound, the inhibition at 0.5 µM [5, 8] was 90 to 100%, the inhibition at 0.01 µM [2, 9] was 15 to 20% and the inhibition at 0.5 µM [2, 10] was 90 to 100%.
`COc1cc(N2CCC(N3CCN(Cc4ccc5c(c4)C(=O)N(N4CCC(=O)NC4=O)C5=O)CC3)CC2)ccc1Nc1ncc(Cl)c(Nc2ccccc2P(C)(C)=O)n1` [GT-08147, 5-((4-(1-(4-((5-chloro-4-((2-(dimethylphosphoryl)phenyl)amino)pyrimidin-2-yl)amino)-3-methoxyphenyl)piperidin-4-yl)piperazin-1-yl)methyl)-2-(2,4-dioxotetrahydropyrimidin-1(2H)-yl)isoindoline-1,3-dione] gave an inhibition at 0.01 µM [4] of 20 to 30%, an inhibition at 0.5 µM [4] of 45 to 55% and an inhibition at 0.01 µM [5, 7] of 10 to 15%. For the same compound, the inhibition at 0.5 µM [5, 8] was 90 to 100%, the inhibition at 0.01 µM [2, 9] was 20 to 30% and the inhibition at 0.5 µM [2, 10] was 60 to 80%.
With `COc1cc(N2CCC(N(C)Cc3ccc4c(c3)CN(N3CCC(=O)NC3=O)C4=O)CC2)ccc1Nc1ncc(Cl)c(Nc2ccccc2P(C)(C)=O)n1` [GT-08148, 1-(5-(((1-(4-((5-chloro-4-((2-(dimethylphosphoryl)phenyl)amino)pyrimidin-2-yl)amino)-3-methoxyphenyl)piperidin-4-yl)(methyl)amino)methyl)-1-oxoisoindolin-2-yl)dihydropyrimidine-2,4 (1H,3H)-dione] the inhibition at 0.01 µM [4] was 15 to 20%, the inhibition at 0.5 µM [4] was 45 to 55% and the inhibition at 0.01 µM [5, 7] was 30 to 45%. The inhibition at 0.5 µM [5, 8] was 90 to 100%, the inhibition at 0.01 µM [2, 9] was 5 to 10% and the inhibition at 0.5 µM [2, 10] was 60 to 80%.
`C[C@@H]1CNC(=O)c2cc3ccc(C(=O)Nc4cnn(Cc5ccc(N6CCN(Cc7ccc8c(c7)CN(N7CCC(=O)NC7=O)C8=O)CC6)cc5)c4)nc3n21` [GT-08149, (R)—N-(1-(4-(4-((2-(2,4-dioxotetrahydropyrimidin-1(2H)-yl)-1-oxoisoindolin-5-yl)methyl)piperazin-1-yl)benzyl)-1H-pyrazol-4-yl)-9-methyl-6-oxo-6,7,8,9-tetrahydropyrido[3′,2′: 4,5]pyrrolo[1,2-a]pyrazine-2-carboxamide] showed an inhibition at 0.01 µM [1] of 5 to 10%, an inhibition at 0.5 µM [1] of 40 to 50% and an inhibition at 0.01 µM ([2]; MV-4-11, 10 nM) of 5 to 10%. It also gave an inhibition at 0.5 µM ([2]; MV-4-11, 500 nM) of 70 to 80%, an inhibition at 0.01 µM ([3]; Table IN2) of -5 to 0% and an inhibition at 0.5 µM ([3]; Table IN2) of 30 to 50%. The inhibition at 0.5 µM ([6]; 0.5 μM, read-out: Inhibition Rate at 0.5 μM (%)) was 20 to 30% and the inhibition at 2 µM ([6]; 2 μM, read-out: Inhibition Rate at 2 μM (%)) was 53 to 60%.
For `C[C@@H]1CNC(=O)c2cc3ccc(C(=O)Nc4cnn(Cc5ccc(N6CCC(N7CCN(Cc8ccc9c(c8)CN(N8CCC(=O)NC8=O)C9=O)CC7)CC6)cc5)c4)nc3n21` [GT-08151, (R)—N-(1-(4-(4-(4-((2-(2,4-dioxotetrahydropyrimidin-1(2H)-yl)-1-oxoisoindolin-5-yl)methyl)piperazin-1-yl)piperidin-1-yl)benzyl)-1H-pyrazol-4-yl)-9-methyl-6-oxo-6,7,8,9-tetrahydropyrido[3′,2′: 4,5]pyrrolo[1,2-a]pyrazine-2-carboxamide], the inhibition at 0.01 µM [1] was 10 to 15%, the inhibition at 0.5 µM [1] was 50 to 60% and the inhibition at 0.01 µM ([2]; MV-4-11, 10 nM) was 5 to 10%. It also gave an inhibition at 0.5 µM ([2]; MV-4-11, 500 nM) of 80 to 100%, an inhibition at 0.01 µM ([3]; Table IN2) of 0 to 5% and an inhibition at 0.01 µM ([3]; Table IN3) of 20 to 30%. It also gave an inhibition at 0.5 µM ([3]; Table IN2) of 30 to 50% and an inhibition at 0.5 µM ([3]; Table IN3) of 10 to 15%.
Work on `CCc1cc2c(cc1N1CCC(N3CCOCC3)CC1)C(C)(C)c1[nH]c3cc(C#N)ccc3c1C2=O` [alectinib, Alectinib, reference compound] yielded an inhibition at 0.01 µM [4] of 5 to 10%, an inhibition at 0.5 µM [4] of 20 to 30% and an IC50 ([5]; Table IB1, ALK inhibitor-based, read-out: Inhibitory activity (IC50, nM) on tumor cell proliferation, SR) of 1000 to 5000 nM. The “Inhibition Rate at 10 nM (%)” value [5, 7] was “IBa4 (15% ≤ IBa4 < 20%)”, the “Inhibition Rate at 500 nM (%)” value [5, 8] was “IBa10 (80% ≤ IBa10 < 90%)” and the inhibition at 0.01 µM [2, 9] was 5 to 10%. The inhibition at 0.5 µM [2, 10] was 30 to 45%, the “Inhibition Rate at 0.5 μM (%)” value ([6]; 0.5 μM) was “a (0% < a ≤ 10%)” and the “Inhibition Rate at 2 μM (%)” value ([6]; 2 μM) was “a (0% < a ≤ 10%)”.
